No end group written: not given here.

The target of one experiment is T1, HLA-DR1 (Homo sapiens, UniProt P01903+P01911, A100R/D57E/F55L/F60I/F76Y/I96L/L162R/M171V/P40L/Q125E/R42F/V115G/Y59C).
T1 construct: DRα*0101 (Uniprot: P01903, residues 26–207); HLA-DRβ1*0101 (Uniprot: P04229, residues 30–219); made in house
Put plainly: HLA-DR1 competitive peptide-binding assay. The note with it: Fig. 2B; competition with 4.5 nM biotinylated CLIP99–117 marker peptide on refolded HLA-DR1-CLIP105–117, pH 5, overnight 37 °C, ELISA read-out; triplicate; four-parameter curve fit; read-out: HLA-DR1 binding IC50. (In an ELISA, binding on a coated surface is turned into a signal by an enzyme label.)
In the case of AGDGRLRLARLALVLLGWVS [5T4_11–30], the half-inhibitory concentration (IC50) – broadly, the midpoint of a concentration-inhibition curve – was 535 nM.
Consider FARRPPLAELAALNLSGSRL [5T4_111–130], for which the concentration for half-maximal inhibition (IC50) worked out at 176 nM.

The experiment is the same for the next values; noted with them: Fig. 5 B,D,F,H,J; truncated/substituted 5T4_111–130 peptides; competition with biotinylated CLIP99–117, pH 5, overnight 37 °C; representative of two experiments in triplicate; read-out: HLA-DR1 binding (IC50).
FARRPPLAELAALNLSGS: the 50% inhibitory concentration (IC50) is 103 nM.
Regarding FARRPPLAELAALNLSRSRL, the half-maximal inhibitory concentration (IC50) was 255 nM.
The same measure, in the same setting: with RRPPLAELAALNLSGSRL the figure was 417 nM; with PPLAELAALNLSGSRL, 231 nM; with FARRPPLAELAAANLSGSRL, 725 nM.
In the case of FARRPPLAELAALNLS, the IC50 was determined as 360 nM.
Turning to LAELAALNL, the IC50 came out at 5140 nM.
On the same count and under the same terms, with FARRPPLAELAALNLSGSRL [5T4_111–130] the figure was 136 nM.

Staying with this experiment, now noted: HLA-DR1 binding (IC50).
On to FARRPPLAELAALALSGSRL, for which the IC50 was 144 nM.

The values are drawn from paper PMC6937582, “Human leukocyte antigen (HLA) class II peptide flanking residues tune the immunogenicity of a human tumor-derived epitope” (The Journal of Biological Chemistry, 2019).
